What all share (type): biochemical
Assay [1] has as its target T1, Aurora B (Homo sapiens, UniProt Q96GD4).
T1 construct: Active Aurora B enzyme (recombinant residues 1-344)
Briefly: Aurora B enzyme assay (time-resolved fluorescence, histone H3 peptide). Particulars: 1 mM ATP, 1 hour. Here is the method:
To determine Aurora B activity of representative compounds of the invention, Active Aurora B enzyme (recombinant residues 1-344) and INCENP (recombinant GST fusion protein (Upstate)) were incubated in wells of a 384 well plate with biotinylted histone H3 peptide residues 1-21 (Upstate), 1 mM ATP, and various concentrations of inhibitors in a HEPES buffer, pH 7.4 containing MgCl2, sodium othrovanadate, and Triton X-100. After 1 hour, the reaction was stopped with EDTA and anti-phospho-histone H3 Europium Cryptate (Cis-Bio) and SA-APC (Phycolink, Prozyme) were added to detect the phosphopeptide. The amount of phosphorylation was determined by the time-resolved fluorescence ratio of signals at 665 nm and 615 nm. The IC50's were calculated by an exponential fit of the inhibition values with the inhibitor concentrations using Assay Explorer software.

Assay [2] concerns the target T2, Aurora A (Homo sapiens, UniProt O14965).
T2 sequence (O14965 1-403): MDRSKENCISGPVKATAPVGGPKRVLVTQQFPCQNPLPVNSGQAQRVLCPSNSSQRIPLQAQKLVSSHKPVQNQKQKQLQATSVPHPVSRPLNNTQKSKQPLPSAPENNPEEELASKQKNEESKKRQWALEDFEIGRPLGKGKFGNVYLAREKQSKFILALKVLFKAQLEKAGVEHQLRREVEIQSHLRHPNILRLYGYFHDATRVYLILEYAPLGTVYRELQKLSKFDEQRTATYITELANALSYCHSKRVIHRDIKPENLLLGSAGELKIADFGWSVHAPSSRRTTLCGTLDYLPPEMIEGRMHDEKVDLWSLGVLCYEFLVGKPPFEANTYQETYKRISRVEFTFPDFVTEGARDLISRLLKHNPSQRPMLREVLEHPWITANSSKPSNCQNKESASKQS
Put plainly: Aurora A enzyme assay (time-resolved fluorescence, STK substrate-2). Particulars: 1 mM ATP, 1 hour. Here is the method: To determine Aurora A and C activity of representative compounds of the invention, Active Aurora A or C enzyme was incubated in wells of a 384 well plate with biotinylated STK substrate-2 (Upstate), 1 mM ATP, and various concentrations of inhibitors in a Hepes buffer, pH 7.4 containing MgCl2, sodium othrovanadate, and Triton X-100. After 1 hour, the reaction was stopped with EDTA and anti-phospho-STK antibody Europium Cryptate (Upstate) and SA-XL665 (Upstate) were added to detect the phosphopeptide. The amount of phosphorylation was determined by the time-resolved fluorescence ratio of signals at 665 nm and 615 nm. The IC50s were calculated by an exponential fit of the inhibition values with the inhibitor concentrations using Assay Explorer software.

For assay [3], the target named is KDR (Homo sapiens, UniProt P35968). Briefly: KDR HTRF in vitro kinase assay. Also noted: purified enzyme (His6-KDR 789-1354, MW 63 kD). Conditions: 1 mM ATP, 60 minutes. As to the method: To determine the activity of the various kinases, a homogenous time-resolved fluorescence (HTRF) in vitro kinase assay was used. (Mathis, G., HTRF(R) Technology. J Biomol Screen, 1999. 4(6): p. 309-314; Alfred J. Kolb, Paul V. Kaplita, David J. Hayes, Young-Whan Park, Christine Pernell, John S. Major and Gerard Mathis, Drug Discovery Today, 1998, 3, 333-342.)
For example for KDR, 7 ng/well of purified enzyme (His6-KDR 789-1354, MW 63 kD) was mixed with 0.5 μM N-biotinylated substrate (Biotin-Ahx-AEEEYFFLA-amide (SEQ. ID. 1)), various concentrations of inhibitor in reaction buffer (50 mM HEPES, pH 7.1, mM MgCl2, 2 mM MnCl2, 0.1% BSA and 1 mM DTT, […] final volume), ATP (1 mM final conc.) in a black 384-well plate. After 60 minutes incubation at room temperature, the reaction was quenched by addition of a buffered EDTA solution (final approximate concentrations: 30 mM EDTA, 0.1% BSA, 0.1% Triton X-100 and 0.24M KF) and a solution of revelation agents (to give 0.084 ng/well streptavidin-XL-665 (Cis-Bio) and 6.5 ng/well antiphsophotyrosine mAb PT66-K Europium kryptate) was added to the reaction mixture. The quenched reaction was allowed to stand at room temperature for 3 hours and was then read in a time-resolved fluorescence detector (InVision, Perkin-Elmer) at 620 nm and 665 nm sequentially with excitation. The ratio between the signal of 620 nm and 665 nm was used in the calculation of the IC50.

Broadly, the IC50 is the concentration at which inhibition is half-maximal. High values mean a need for much substance, low ones inhibition by little substance.

T1 sequence (Q96GD4 whole entry, the tested form may be a part): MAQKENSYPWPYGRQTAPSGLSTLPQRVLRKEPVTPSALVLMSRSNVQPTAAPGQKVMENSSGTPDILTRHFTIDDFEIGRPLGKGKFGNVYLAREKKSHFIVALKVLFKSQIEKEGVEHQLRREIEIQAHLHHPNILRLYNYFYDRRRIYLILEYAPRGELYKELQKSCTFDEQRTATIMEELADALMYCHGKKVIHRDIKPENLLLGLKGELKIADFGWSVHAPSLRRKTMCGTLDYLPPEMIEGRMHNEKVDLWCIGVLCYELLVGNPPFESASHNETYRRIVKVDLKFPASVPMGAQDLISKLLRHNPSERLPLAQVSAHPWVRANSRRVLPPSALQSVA
T1 sequence (Q9NQS7 826-918 partner limits assumed): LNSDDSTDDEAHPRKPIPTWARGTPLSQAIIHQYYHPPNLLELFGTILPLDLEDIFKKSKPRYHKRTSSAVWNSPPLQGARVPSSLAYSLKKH
KDR, sequence (P35968 789-1354): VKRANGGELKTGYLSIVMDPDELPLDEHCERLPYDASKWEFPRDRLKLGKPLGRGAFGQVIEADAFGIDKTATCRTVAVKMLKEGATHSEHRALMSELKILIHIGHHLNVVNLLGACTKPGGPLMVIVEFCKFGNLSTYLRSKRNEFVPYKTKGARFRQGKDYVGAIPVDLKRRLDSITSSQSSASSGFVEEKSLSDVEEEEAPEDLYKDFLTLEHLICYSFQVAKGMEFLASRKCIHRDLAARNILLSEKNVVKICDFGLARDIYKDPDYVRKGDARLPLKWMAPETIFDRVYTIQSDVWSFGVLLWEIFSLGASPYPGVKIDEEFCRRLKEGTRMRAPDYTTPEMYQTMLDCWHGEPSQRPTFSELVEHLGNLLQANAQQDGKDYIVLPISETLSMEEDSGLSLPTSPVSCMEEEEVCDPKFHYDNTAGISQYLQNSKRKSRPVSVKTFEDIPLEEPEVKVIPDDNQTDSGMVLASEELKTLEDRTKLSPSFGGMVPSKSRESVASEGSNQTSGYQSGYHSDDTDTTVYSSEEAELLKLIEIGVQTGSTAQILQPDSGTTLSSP

Regarding `Cc1cccc(NC(=O)Nc2ccc(-c3ccc4c(-c5ccsc5)n[nH]c4c3)cc2)c1` [Example 7, N-(3-methylphenyl)-N′-[4-(3-thien-3-yl-1H-indazol-6-yl)phenyl]urea], the concentration for half-maximal inhibition (IC50) in assay [1] was over 12500 nM; in assay [2], over 12500 nM; in assay [3], 12300 nM.
In the case of `CC(C)(O)Cn1cc(-c2n[nH]c3cc(-c4ccc(NC(=O)Nc5cccc(F)c5)cc4)ccc23)cn1` [Example 15, N-(3-fluorophenyl)-N′-(4-{3-[1-(2-hydroxy-2-methylpropyl)-1H-pyrazol-4-yl]-1H-indazol-6-yl}phenyl)urea], the IC50 in assay [1] was 142 nM; in assay [2], over 12500 nM; in assay [3], 6690 nM.
On the same counts, the results for `Cn1cc(-c2n[nH]c3cc(-c4ccc(NC(=O)Nc5cccc(OC(F)(F)F)c5)cc4)ccc23)cn1` [Example 25, N-{4-[3-(1-methyl-1H-pyrazol-4-yl)-1H-indazol-6-yl]phenyl}-N′-[3-(trifluoromethoxy)phenyl]urea] are 493 nM, over 12500 nM and 30.2 nM.
The matching figures for `Cn1cc(-c2n[nH]c3cc(-c4ccc(CNC(=O)Nc5cccc(F)c5)cc4)ccc23)cn1` [Example 24, N-(3-fluorophenyl)-N′-{4-[3-(1-methyl-1H-pyrazol-4-yl)-1H-indazol-6-yl]benzyl}urea]: 1030 nM, over 12500 nM and over 12500 nM.
Turning to `Cc1cccc(NC(=O)Nc2ccc(-c3ccc4c(-c5ccccc5)n[nH]c4c3)cc2)c1` [Example 32, N-(3-methylphenyl)-N′-[4-(3-phenyl-1H-indazol-6-yl)phenyl]urea], the IC50 was 1920 nM in assay [1], over 12500 nM in assay [2] and 3610 nM in assay [3].
On to `O=C(Nc1ccc(-c2ccc3c(-c4cnn(CCO)c4)n[nH]c3c2)cc1)Nc1cccc(C(F)(F)F)c1` [Example 11, N-(4-{3-[1-(2-hydroxyethyl)-1H-pyrazol-4-yl]-1H-indazol-6-yl}phenyl)-N′-[3-(trifluoromethyl)phenyl]urea], for which the concentration for half-maximal inhibition (IC50) in assay [1] is 136 nM; in assay [2], over 12500 nM; in assay [3], 20.7 nM.
Take `Cn1cc(-c2n[nH]c3cc(-c4ccc(NC(=O)Nc5ccc(OC(F)(F)F)cc5)cc4)ccc23)cn1` [Example 28, N-{4-[3-(1-methyl-1H-pyrazol-4-yl)-1H-indazol-6-yl]phenyl}-N′-[4-(trifluoromethoxy)phenyl]urea]: the concentration for half-maximal inhibition (IC50) in assay [1] is 871 nM; in assay [2], over 12500 nM; in assay [3], 38 nM.
Regarding `Cc1cccc(NC(=O)Nc2ccc(-c3ccc4c(-c5cc6ccccc6[nH]5)n[nH]c4c3)cc2)c1` [Example 36, N-{4-[3-(1H-indol-2-yl)-1H-indazol-6-yl]phenyl}-N′-(3-methylphenyl)urea], the results for the IC50 in assay [1], in assay [2] and in assay [3] were over 12500 nM, over 12500 nM and 303 nM, respectively.
Take `Cn1cc(-c2n[nH]c3cc(-c4ccc(NC(=O)Nc5cccc(C(F)(F)F)c5)cc4)ccc23)cn1` [Example 18, N-{4-[3-(1-methyl-1H-pyrazol-4-yl)-1H-indazol-6-yl]phenyl}-N′-[3-(trifluoromethyl)phenyl]urea]: the IC50 in assay [1] is 156 nM; in assay [2] it was over 12500 nM; in assay [3], 23.7 nM.
Take `Cn1cc(-c2n[nH]c3cc(-c4ccc(CNC(=O)c5cccc(F)c5)cc4)ccc23)cn1` [Example 31, 3-fluoro-N-{4-[3-(1-methyl-1H-pyrazol-4-yl)-1H-indazol-6-yl]benzyl}benzamide]: the IC50 in assay [1] was determined as 142 nM; in assay [2], 5210 nM; in assay [3], 1790 nM.
On the same counts, the results for `Cc1cccc(NC(=O)Nc2ccc(-c3ccc4c(-c5cscn5)n[nH]c4c3)cc2)c1` [Example 35, N-(3-methylphenyl)-N′-{4-[3-(1,3-thiazol-4-yl)-1H-indazol-6-yl]phenyl}urea] are 569 nM, over 12500 nM and 558 nM.
As to `Cn1nccc1-c1n[nH]c2cc(-c3ccc(NC(=O)Nc4cccc(F)c4)cc3)ccc12` [Example 14, N-(3-fluorophenyl)-N′-{4-[3-(1-methyl-1H-pyrazol-5-yl)-1H-indazol-6-yl]phenyl}urea], the IC50 in assay [1], in assay [2] and in assay [3] was over 12500 nM each time.
For `Cc1cccc(NC(=O)Nc2cccc(-c3ccc4c(-c5cnn(C)c5)n[nH]c4c3)c2)c1` [Example 17, N-(3-methylphenyl)-N′-{3-[3-(1-methyl-1H-pyrazol-4-yl)-1H-indazol-6-yl]phenyl}urea], the IC50 in assay [1] was 1320 nM; in assay [2], over 12500 nM; in assay [3] it was 48.8 nM.
Regarding `Cn1cc(-c2n[nH]c3cc(-c4ccc(NC(=O)Nc5ccccc5OC(F)(F)F)cc4)ccc23)cn1` [Example 27, N-{4-[3-(1-methyl-1H-pyrazol-4-yl)-1H-indazol-6-yl]phenyl}-N′-[2-(trifluoromethoxy)phenyl]urea], the IC50 in assay [1] was 773 nM; in assay [2] it was over 12500 nM; in assay [3], 97.6 nM.
Consider `Cc1cccc(NC(=O)Nc2ccc(-c3ccc4c(-c5cccnc5)n[nH]c4c3)cc2)c1` [Example 33, N-(3-methylphenyl)-N′-[4-(3-pyridin-3-yl-1H-indazol-6-yl)phenyl]urea], for which the IC50 in assay [1] is 120 nM; in assay [2], over 12500 nM; in assay [3] it was 584 nM.
Regarding `CCCn1cc(-c2n[nH]c3cc(-c4ccc(NC(=O)Nc5cccc(F)c5)cc4)ccc23)cn1` [Example 13, N-(3-fluorophenyl)-N′-{4-[3-(1-propyl-1H-pyrazol-4-yl)-1H-indazol-6-yl]phenyl}urea], the figures for the concentration for half-maximal inhibition (IC50) in assay [1], in assay [2] and in assay [3] were 86.4 nM, 10900 nM and 217 nM, respectively.
Regarding `Cc1cccc(NC(=O)Nc2cccc(-c3ccc4c(-c5cccnc5)n[nH]c4c3)c2)c1` [Example 34, N-(3-methylphenyl)-N′-[3-(3-pyridin-3-yl-1H-indazol-6-yl)phenyl]urea], the 50% inhibitory concentration (IC50) was over 12500 nM in assay [1], over 12500 nM in assay [2] and 278 nM in assay [3].
For `Cc1cccc(NC(=O)Nc2ccc(-c3ccc4c(-c5ccc[nH]5)n[nH]c4c3)cc2)c1` [Example 4, N-(3-methylphenyl)-N′-{4-[3-(1H-pyrrol-2-yl)-1H-indazol-6-yl]phenyl}urea], the half-maximal inhibitory concentration (IC50) in assay [1] worked out at 207 nM; in assay [2], 1460 nM; in assay [3] it was 291 nM.
In the case of `Cc1cccc(NC(=O)Nc2ccc(-c3ccc4c(-c5cnn(CCN6CCOCC6)c5)n[nH]c4c3)cc2)c1` [Example 5, N-(3-methylphenyl)-N′-(4-{3-[1-(2-morpholin-4-ylethyl)-1H-pyrazol-4-yl]-1H-indazol-6-yl}phenyl)urea], the IC50 is 194 nM in assay [1], over 12500 nM in assay [2] and 31.7 nM in assay [3].

The values above are taken from patent US8293738B2, “Indazole inhibitors of kinase” (Abbott Laboratories, priority 2010, dated 2012).
